According to ChEMBL document CHEMBL1201862, “PubChem BioAssay data set” (2004):
The source made the active and inactive calls.

Key:
[1] = molecular target: T1, Replicative DNA helicase DnaB (Mycobacterium tuberculosis, UniProt P9WMR3); assay: DnaB intein splicing inhibitors, dose response, biochemical, cell-free fluorescence (AID 449749); format: functional
T1 sequence (P9WMR3 whole entry): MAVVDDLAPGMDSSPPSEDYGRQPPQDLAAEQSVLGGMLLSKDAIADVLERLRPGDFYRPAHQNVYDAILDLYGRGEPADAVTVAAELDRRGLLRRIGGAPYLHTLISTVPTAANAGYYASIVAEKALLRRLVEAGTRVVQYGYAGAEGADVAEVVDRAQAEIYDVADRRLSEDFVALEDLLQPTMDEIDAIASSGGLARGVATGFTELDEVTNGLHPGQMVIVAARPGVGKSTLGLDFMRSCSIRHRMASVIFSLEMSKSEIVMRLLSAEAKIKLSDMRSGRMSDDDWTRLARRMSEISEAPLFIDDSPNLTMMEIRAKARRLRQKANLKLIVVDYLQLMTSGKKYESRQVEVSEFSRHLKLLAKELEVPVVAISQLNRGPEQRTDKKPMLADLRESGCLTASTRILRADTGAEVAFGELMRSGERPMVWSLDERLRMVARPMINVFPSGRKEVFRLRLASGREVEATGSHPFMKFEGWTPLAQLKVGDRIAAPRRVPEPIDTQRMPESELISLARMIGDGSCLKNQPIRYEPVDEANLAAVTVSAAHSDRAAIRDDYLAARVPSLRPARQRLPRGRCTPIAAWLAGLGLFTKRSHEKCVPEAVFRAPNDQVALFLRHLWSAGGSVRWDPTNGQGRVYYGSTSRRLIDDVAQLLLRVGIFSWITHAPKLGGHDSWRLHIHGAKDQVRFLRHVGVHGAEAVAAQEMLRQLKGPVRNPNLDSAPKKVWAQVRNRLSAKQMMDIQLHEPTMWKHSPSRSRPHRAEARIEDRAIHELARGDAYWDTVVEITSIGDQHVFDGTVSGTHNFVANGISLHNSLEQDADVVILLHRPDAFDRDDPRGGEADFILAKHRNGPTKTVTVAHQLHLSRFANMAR

Protein RecA = molecular target: T2, Protein RecA (Mycobacterium tuberculosis, UniProt P9WHJ3); assay: Fluorescence Cell-Free Homogeneous Dose Retest to Identify Inhibitors of RecA-Intein Splicing Activity. [Related pubchem assays (depositor defined):AID2097, AID2223, AID489010, AID492950]; format: functional
T2 sequence (P9WHJ3 whole entry): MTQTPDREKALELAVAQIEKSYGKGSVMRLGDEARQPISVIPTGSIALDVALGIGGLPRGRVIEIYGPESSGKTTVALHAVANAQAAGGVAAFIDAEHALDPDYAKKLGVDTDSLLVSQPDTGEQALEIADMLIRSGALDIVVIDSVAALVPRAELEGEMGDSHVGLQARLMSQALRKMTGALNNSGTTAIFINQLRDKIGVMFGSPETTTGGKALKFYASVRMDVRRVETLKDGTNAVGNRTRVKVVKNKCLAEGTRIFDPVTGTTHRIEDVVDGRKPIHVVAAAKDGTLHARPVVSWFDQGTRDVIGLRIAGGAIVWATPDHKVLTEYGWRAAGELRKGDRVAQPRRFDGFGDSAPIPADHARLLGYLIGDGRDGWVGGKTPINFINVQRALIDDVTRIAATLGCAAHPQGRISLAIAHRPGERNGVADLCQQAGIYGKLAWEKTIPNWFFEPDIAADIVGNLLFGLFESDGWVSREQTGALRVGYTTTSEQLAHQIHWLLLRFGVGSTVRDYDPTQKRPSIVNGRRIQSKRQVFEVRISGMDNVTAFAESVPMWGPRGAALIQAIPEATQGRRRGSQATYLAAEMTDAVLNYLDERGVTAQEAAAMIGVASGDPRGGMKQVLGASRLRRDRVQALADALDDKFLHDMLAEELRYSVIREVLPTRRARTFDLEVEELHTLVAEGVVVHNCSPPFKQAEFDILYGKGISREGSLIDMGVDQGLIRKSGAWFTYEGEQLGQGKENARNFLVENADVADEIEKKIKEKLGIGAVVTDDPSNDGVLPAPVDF

[2] = molecular target: T3, Sentrin-specific protease 8 (Homo sapiens, UniProt Q96LD8); format: functional;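 further: kinetic enzyme assay of SENP8 cleaving a Nedd8 protein substrate, dose-response confirmation of screening hits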
T3 sequence (Q96LD8 whole entry): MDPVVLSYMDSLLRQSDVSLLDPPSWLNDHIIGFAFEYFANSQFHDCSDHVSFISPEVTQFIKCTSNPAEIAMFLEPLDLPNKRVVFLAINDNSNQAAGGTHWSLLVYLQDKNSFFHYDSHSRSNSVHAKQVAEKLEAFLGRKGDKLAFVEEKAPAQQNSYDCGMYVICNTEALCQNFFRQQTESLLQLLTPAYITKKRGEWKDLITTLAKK

[3] = molecular target: T4, Tyrosyl-DNA phosphodiesterase 2 (Homo sapiens, UniProt O95551); assay: human TDP2 enzyme inhibitors, dose response, biochemical, epi absorbance, IC50 (AID 743297)
T4 sequence (O95551 whole entry): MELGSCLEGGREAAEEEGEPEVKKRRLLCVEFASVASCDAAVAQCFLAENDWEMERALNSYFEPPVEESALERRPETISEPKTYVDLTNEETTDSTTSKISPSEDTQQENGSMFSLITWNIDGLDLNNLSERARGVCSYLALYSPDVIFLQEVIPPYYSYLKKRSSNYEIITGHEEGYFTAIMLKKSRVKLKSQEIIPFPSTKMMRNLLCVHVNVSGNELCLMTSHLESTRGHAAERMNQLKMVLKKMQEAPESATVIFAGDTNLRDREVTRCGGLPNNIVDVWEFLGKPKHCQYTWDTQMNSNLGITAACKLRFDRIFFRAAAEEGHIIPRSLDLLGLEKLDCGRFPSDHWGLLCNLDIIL

[4] = molecular target: Mitochondrial peptide methionine sulfoxide reductase (Bos taurus, UniProt P54149); format: functional;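 further: absorbance read-out, biochemical high-throughput dose-response screen for MsrA inhibitors, confirmatory; recombinant bovine MsrA coupled to E. coli TrxB with NADPH and selenocystamine; potency is for inhibitors of MsrA activity on DMSO substrate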
Chain of Mitochondrial peptide methionine sulfoxide reductase (P54149 whole entry): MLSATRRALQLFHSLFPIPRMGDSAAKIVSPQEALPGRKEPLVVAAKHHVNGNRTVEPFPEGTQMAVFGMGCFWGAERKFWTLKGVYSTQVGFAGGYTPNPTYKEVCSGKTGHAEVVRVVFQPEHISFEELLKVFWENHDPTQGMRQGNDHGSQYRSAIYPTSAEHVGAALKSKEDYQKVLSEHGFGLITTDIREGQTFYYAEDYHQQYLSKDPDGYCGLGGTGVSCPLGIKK

Interleukin-8 = Interleukin-8 (Homo sapiens, UniProt P10145); assay: Dose Response confirmation of uHTS small molecule hits for cystic fibrosis induced NFkb Inhibitors in a PAF-induced IL8 counterscreen.; format: functional; details: read-out: IC50_Mean
Chain of Interleukin-8 (P10145 whole entry, the tested form may be a part): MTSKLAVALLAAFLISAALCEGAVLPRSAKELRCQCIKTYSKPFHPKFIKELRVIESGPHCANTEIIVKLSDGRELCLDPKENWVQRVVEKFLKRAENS

[5] = inhibitors of HIV Env-driven cell fusion, dose response, cherry-pick (AID 652057); format: functional, cell-based
[6] = off-target signal loss in HeLa-CEM21 co-culture – HeLa F-luc CTL cells, cherry-picked, counter-screen for HIV-1 Env fusion inhibitor project, dose response (AID 652040); format: functional, cell-based;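 further: potency for signal decrease marking cytotoxic or nonspecific inhibition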
[7] = inhibitors of clade B AD8 Env fusion, dose response, cell-based, cherry-pick (AID 652062); format: functional;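 further: luciferase signal from cell-cell fusion driven by HIV-1 clade B AD8 Env; potency is for inhibitors of fusion seen as a drop in luminescence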

## COc1ccc(O)c(C(c2c(C)[nH][nH]c2=O)c2c(C)[nH][nH]c2=O)c1
[1]
  AC50: 1.42 µM (active)
Protein RecA
  EC50: 1.17 µM (active)
[2]
  IC50: 7.14 µM (active)
[3]
  IC50: 33.6 µM (inactive)

## Cc1c(OCC(=O)N(C)C)ccc2c(-c3ccccc3)cc(=O)oc12
[4]
  IC50: 93.6 µM (inactive)

## COc1ccc(-c2cc(=O)oc3c(C)c(O)ccc23)cc1
Interleukin-8
  IC50: > 79 µM (inactive)
[5]
  AC50: 3.8 µM (active)
[6]
  AC50: 9.72 µM (active)
[7]
  AC50: 5.69 µM (active)
